31 compounds from the supplement of paper PMC6965134 can be followed below.

The data set can be described thus: TIMS collisional cross section (CCS, N2) of the lipid ion; higher = larger ion cross section. Particulars: ionization mode: negative, one isomer drawn. The protocol:
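Lipid extracts of human plasma (NIST SRM 1950), mouse liver or HeLa cells were separated by nanoflow C18 LC (30 min gradient) and analysed by TIMS-PASEF on a timsTOF Pro. Ion mobility was calibrated with the Agilent tuning mix (negative mode ions) and converted to collisional cross sections (Mason–Schamp, N2).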

± gives the standard deviation of the averaged measurements.
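Further: lipids from MTBE extraction, five replicate injections per sample, 100 ms TIMS ramp spanning 0.6–1.95 Vs/cm², lipid identity assigned from PASEF MS/MS spectra.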

Regarding `CCCCC/C=C\C/C=C\CCCCCCCC(=O)O[C@H](CO/C=C\CCCCCCCCCCCCCCCC)COP(=O)(O)OCCN` [PE P- 18:0@_18:2], under “sample type: Human plasma, ion (formula + adduct): [C41H78NO7P-CH3] 1-”, the “TIMS collisional cross section” value amounted to 269 Å².

Consider `CCCCCCCCCCCCC/C=C/C=C/C(=O)OC[C@H](COP(=O)([O-])OCC[N+](C)(C)C)OC(=O)/C=C/C=C/CCCCCCCCCCCCC` [PC 18:2_18:2], for which the “TIMS collisional cross section” value is, setting by setting: (sample type: Human plasma, ion (formula + adduct): [C44H80NO8P+HCOO] 1-) 293.4 ± 0.35 Å²; (sample type: Mouse Liver, ion (formula + adduct): [C44H80NO8P+HCOO] 1-) 292.7 Å².

In the case of `CCCCC/C=C\C/C=C\C/C=C\CCCCC(=O)O[C@H](COC(=O)CCCCCCCCCCCCCCC)COP(=O)([O-])OCC[N+](C)(C)C` [PC 16:0_18:3], the “TIMS collisional cross section” value by setting is: (sample type: Human plasma, ion (formula + adduct): [C42H78NO8P+HCOO] 1-) 289.9 Å²; (sample type: Mouse Liver, ion (formula + adduct): [C42H78NO8P+HCOO] 1-) 289.15 ± 0.21 Å². `CCCCCCCCCCCCCCCC(=O)OC[C@H](COP(=O)([O-])OCC[N+](C)(C)C)OC(=O)CCCCCCCC(=O)O` [Oxidized PC 16:0_9:0@]: the “TIMS collisional cross section” value (sample type: Mouse Liver, ion (formula + adduct): [C33H64NO10P-CH3] 1-) is listed as 255.5 Å². `CC/C=C\C/C=C\C/C=C\C/C=C\C/C=C\C/C=C\CCC(=O)OC[C@H](COP(=O)(O)OCCN)OC(=O)CCCCCCC/C=C\CCCCCC` [PE 22:6_16:1]: the “TIMS collisional cross section” value (sample type: Mouse Liver, ion (formula + adduct): [C43H72NO8P-H] 1-) turned out to be 272.7 Å².

With `CCCCC/C=C\C/C=C\CCCCCCCC(=O)O[C@H](COCCCCCCCCCCCCCCCC)COP(=O)([O-])OCC[N+](C)(C)C` [PC O- 16:0@_18:2], the “TIMS collisional cross section” value (sample type: Human plasma, ion (formula + adduct): [C42H82NO7P+HCOO] 1-) worked out at 288.8 Å²; the “TIMS collisional cross section” value (sample type: Human plasma, ion (formula + adduct): [C42H82NO7P-CH3] 1-) was 271.8 Å²; the “TIMS collisional cross section” value (sample type: Mouse Liver, ion (formula + adduct): [C42H82NO7P+HCOO] 1-) was determined as 290 Å². Regarding `CCCCC/C=C\C/C=C\CCCCCCCCCCCC(=O)O[C@H](COC(=O)CCCCCCC/C=C\CCCCCCCC)COP(=O)(O)OCCN` [PE 18:1_22:2], for the setting “sample type: Mouse Liver, ion (formula + adduct): [C45H84NO8P-H] 1-”, the “TIMS collisional cross section” value was 284.1 Å².

On to `CCCCC/C=C\C/C=C\CCCCCCCC(=O)O[C@H](COC(=O)CCCCCCC/C=C\CCCCCCC)COP(=O)(O)OCCN` [PE 17:1_18:2], for which the “TIMS collisional cross section” value (sample type: Mouse Liver, ion (formula + adduct): [C40H74NO8P-H] 1-) worked out at 267.7 Å². As to `CCCCC/C=C\C/C=C\C/C=C\CCCCCCC(=O)OC[C@H](COP(=O)(O)OC1[C@H](O)[C@H](O)C(O)[C@H](O)[C@H]1O)OC(=O)CCCCCCCCCCCCCCC` (stereo partly drawn) [PI 20:3@_16:0], the “TIMS collisional cross section” value (sample type: Human plasma, ion (formula + adduct): [C45H81O13P-H] 1-) is reported as 298.9 Å². Regarding `CCCCCC/C=C\CCCCCCCC(=O)O[C@H](COC(=O)CCCCCCCCCCCCCC)COP(=O)([O-])OCC[N+](C)(C)C` [PC 15:0@_16:1], the “TIMS collisional cross section” value (sample type: Mouse Liver, ion (formula + adduct): [C39H76NO8P+AcO] 1-) is recorded as 285.4 Å². As for `CCCCCC/C=C\CCCCCCCC(=O)OC[C@H](COP(=O)(O)OC1C(O)C(O)C(O)[C@@H](O)C1O)OC(=O)CCCCCCCCCCCCCCC` (stereo partly drawn) [PI 16:1_16:0@], the “TIMS collisional cross section” value (sample type: Human plasma, ion (formula + adduct): [C41H77O13P-H] 1-) was determined as 282.6 Å².

`C=CCCC(=O)O[C@H](COC(=O)CCCCCCCCCCCCCCC)COP(=O)([O-])OCC[N+](C)(C)C` [PC 16:0_5:1]: for the setting “sample type: Mouse Liver, ion (formula + adduct): [C29H56NO8P+AcO] 1-”, the “TIMS collisional cross section” value stood at 252.1 Å². `CC/C=C\C/C=C\C/C=C\C/C=C\C/C=C\C/C=C\CCC(=O)O[C@H](COC(=O)CCCCCCC/C=C\C/C=C\CCCCC)COP(=O)(O)OC[C@@H](O)CO` [PG 18:2_22:6]: the “TIMS collisional cross section” value (sample type: Mouse Liver, ion (formula + adduct): [C46H75O10P-H] 1-) is on record as 287.5 Å².

As for `CC/C=C\C/C=C\C/C=C\CCCCCCCC(=O)O[C@@H](CO)COC(=O)CCCCCCC/C=C\CCCCC` [DG 15:1@_18:3_0:0], the “TIMS collisional cross section” value (sample type: Human plasma, ion (formula + adduct): [C36H62O5-H] 1-) is reported as 251.2 Å². Turning to `CCCCC/C=C\C/C=C\C/C=C\C/C=C\CCCC(=O)OC[C@H](COP(=O)(O)OCCN)OC(=O)CCCCCCCCCCCCCCCCCCCCC` [PE 20:4_22:0], under “sample type: Mouse Liver, ion (formula + adduct): [C47H86NO8P-H] 1-”, the “TIMS collisional cross section” value came to 288 Å². `CCCCCC/C=C\CCCCCCCC(=O)O[C@H](COC(=O)CCCCCCCCCCCCC)COP(=O)([O-])OCC[N+](C)(C)C` [PC 14:0@_16:1]: the “TIMS collisional cross section” value (sample type: Mouse Liver, ion (formula + adduct): [C38H74NO8P+HCOO] 1-) is on record as 280.9 Å². For `CCCCC/C=C\C/C=C\CCCCCCCC(=O)OC[C@@H](O)COP(=O)(O)O` [LPA 18:2_0:0], the “TIMS collisional cross section” value (sample type: Human plasma, ion (formula + adduct): [C21H39O7P-H] 1-) was 207.7 ± 8.1 Å². On to `CCCCCCCC/C=C\CCCCCCCCCC(=O)O[C@H](CO/C=C\CCCCCCCCCCCCCC)COP(=O)(O)OCCN` [PE P- 16:0@_20:1], for which the “TIMS collisional cross section” value (sample type: Mouse Liver, ion (formula + adduct): [C41H80NO7P-H] 1-) stood at 273.5 Å². Consider `CCCCCCCC/C=C\CCCCCCCC(=O)OCC(COP(=O)(O)OCCN)OC(=O)CCCCCCC/C=C\CCCCCCCC` (stereo not drawn) [PE 18:1_18:1], for which the “TIMS collisional cross section” value (sample type: Human plasma, ion (formula + adduct): [C41H78NO8P-H] 1-) is 272.3 Å².

With `CCCCC/C=C\C/C=C\C/C=C\CCCCCCC(=O)O[C@H](COC(=O)CCCCCCC/C=C\CCCCCC)COP(=O)([O-])OCC[N+](C)(C)C` [PC 16:1_20:3], the “TIMS collisional cross section” value (sample type: Mouse Liver, ion (formula + adduct): [C44H80NO8P-CH3] 1-) was found to be 276.2 Å². With `CC/C=C\C/C=C\C/C=C\C/C=C\C/C=C\CCCC(=O)O[C@H](COC(=O)CCCCCCCCCCCCCCCCC)COP(=O)([O-])OCC[N+](C)(C)C` [PC 18:0@_20:5], the “TIMS collisional cross section” value (sample type: Human plasma, ion (formula + adduct): [C46H82NO8P+HCOO] 1-) was 301.2 Å². On to `CCCCCCCCCCCCCCCCOC[C@H](COP(=O)([O-])OCC[N+](C)(C)C)OC(=O)CCCCCCCCCCCCCCC` [PC O- 16:0_16:0], for which, for the setting “sample type: Human plasma, ion (formula + adduct): [C40H82NO7P+HCOO] 1-”, the “TIMS collisional cross section” value turned out to be 287.8 Å². For `CCCCC/C=C\C/C=C\CCCCCCCC(=O)OCC(COP(=O)(O)OCCN)OC(=O)CCCCCCC/C=C\C/C=C\CCCCC` (stereo not drawn) [PE 18:2_18:2], the “TIMS collisional cross section” value by setting is: (sample type: Human plasma, ion (formula + adduct): [C41H74NO8P-H] 1-) 268.8 Å²; (sample type: Mouse Liver, ion (formula + adduct): [C41H74NO8P-H] 1-) 268.8 Å².

`CCCCCCCCCCCCCCCCCCCC(=O)O[C@H](COC(=O)CCCCCCC)COP(=O)([O-])OCC[N+](C)(C)C` [PC 8:0_20:0@]: where the note is “sample type: Mouse Liver, ion (formula + adduct): [C36H72NO8P+HCOO] 1-”, the “TIMS collisional cross section” value is 277.6 Å². On to `C=CC(=O)O[C@H](COC(=O)CCCCCCCCCCCCCCC)COP(=O)([O-])OCC[N+](C)(C)C` [PC 16:0_3:1@], for which the “TIMS collisional cross section” value reads like this: (sample type: Human plasma, ion (formula + adduct): [C27H52NO8P+OAcO] 1-) 252.2 Å²; (sample type: Mouse Liver, ion (formula + adduct): [C27H52NO8P+AcO] 1-) 244.7 Å². On to `CC/C=C\C/C=C\C/C=C\C/C=C\C/C=C\C/C=C\CCC(=O)O[C@H](COC(=O)CCC/C=C\C/C=C\C/C=C\C/C=C\CCCCC)COP(=O)(O)OC[C@@H](O)CO` [PG 20:4_22:6], for which, for the setting “sample type: Mouse Liver, ion (formula + adduct): [C48H75O10P-H] 1-”, the “TIMS collisional cross section” value is given as 291.4 Å². For `CC/C=C\C/C=C\C/C=C\C/C=C\C/C=C\C/C=C\CCC(=O)OC[C@@H](O)COP(=O)(O)OC1[C@H](O)[C@H](O)C(O)[C@H](O)[C@H]1O` (stereo partly drawn) [LPI 22:6_0:0], the “TIMS collisional cross section” value (sample type: Human plasma, ion (formula + adduct): [C31H49O12P-H] 1-) was found to be 243.8 Å². As to `CCCCC/C=C\C[C@H](O)/C=C/C=C\C/C=C\CCCC(=O)O[C@H](CO/C=C\CCCCCCCCCCCCCCCC)COP(=O)(O)OCCN` [Oxidized PE 18:0@_20:4], where the note is “sample type: Human plasma, ion (formula + adduct): [C43H78NO8P-H] 1-”, the “TIMS collisional cross section” value came out at 280.43 ± 1.2 Å². For the compound `CCCCC/C=C\C/C=C\C/C=C\C/C=C\C/C=C\CCC(=O)O[C@H](COC(=O)CCCCCCCCCCCCCCC)COP(=O)([O-])OCC[N+](C)(C)C` [PC 16:0@_22:5], the “TIMS collisional cross section” value runs as follows: (sample type: Human plasma, ion (formula + adduct): [C46H82NO8P-CH3] 1-) 282.7 ± 0.42 Å²; (sample type: Mouse Liver, ion (formula + adduct): [C46H82NO8P-CH3] 1-) 282.4 Å². Consider `CCCCC/C=C\C/C=C\CCCCCCCCCC(=O)OC[C@H](COP(=O)(O)OC1[C@H](O)[C@H](O)C(O)[C@H](O)[C@H]1O)OC(=O)CCCCCCCCCCCCCCCCC` (stereo partly drawn) [PI 20:2_18:0@], for which, where the note is “sample type: Human plasma, ion (formula + adduct): [C47H87O13P-H] 1-”, the “TIMS collisional cross section” value came to 300.4 Å². Consider `CCCCCCCCCCCCCCCCCC(=O)O[C@H](COC(=O)CCCCCCCCCCCCC)COP(=O)([O-])OCC[N+](C)(C)C` [PC 14:0_18:0], for which the “TIMS collisional cross section” value (sample type: Human plasma, ion (formula + adduct): [C40H80NO8P+HCOO] 1-) is 287.7 Å².
